Values after ≈ are worked out from the molar mass of the structure shown. Where two headings read alike, the source gives them in different places. Where only a bound is given, the exact number is not on record here.

Data set [1] deals with Staphylococcus aureus ATCC 12600. In words: Inhibition of growth of Staphylococcus aureus (spiral gradient endpoint assay). The format is cell-based. The conditions noted are these: read-out: in vitro antibacterial activity S. aureus ATCC 12600 MIC. From the text: Minimum inhibitory concentrations (MICs) for Staphylococcus aureus ATCC 12600 were quantified using spiral gradient endpoint assays, essentially as described [Wallace, A. and Corkill, J. (1989) Application of the spiral plating method to study antimicrobial action. J. Microbiol. Meths. 10, 303-310; Paton, J., Holt, A., and Bywater, M. (1990) Measurement of MICs of antibacterial agents by spiral gradient endpoint compared with conventional dilution methods. Int. J. Exp. Clin. Chemother. 3, 31-38; Schalkowsky S. (1994) Measures of susceptibility from a spiral gradient of drug concentrations. Adv. Exp. Med. Biol. 349, 107-120]. Assays employed exponential-gradient plates containing 150 mm×4 mm Mueller-Hinton II cation-adjusted agar and 0.4-100 μg/ml of test compound. Plates were prepared using an Autoplate 4000 spiral plater (Spiral Biotech, Inc.). Saturated overnight cultures were swabbed radially onto plates, and plates were incubated for 16 h at 37° C. For each culture, the streak length was measured using a clear plastic template (Spiral Biotech, Inc.), the test-compound concentration at the streak endpoint was calculated using the program SGE (Spiral Biotech, Inc.), and the MIC was defined as the calculated test-compound concentration at the streak endpoint.

The target of data set [2] is E. coli RNA polymerase σ70 holoenzyme (Escherichia coli, UniProt P0A8T7+P0A8V2). As to the kind of experiment: Fluorescence-detected inhibition of bacterial RNA polymerase. The format is biochemical. The method, then: Fluorescence-detected RNA polymerase assays with E. coli RNA polymerase were performed by a modification of the procedure of Kuhlman et al., 2004 [Kuhlman, P., Duff, H. & Galant, A. (2004) A fluorescence-based assay for multisubunit DNA-dependent RNA polymerases. Anal. Biochem. 324, 183-190]. Reaction mixtures contained (20 μl): 0-100 nM test compound, 75 nM E. coli RNA polymerase σ^70holoenzyme, 20 nM 384 bp DNA fragment containing the bacteriophage T4 N25 promoter, 100 μM ATP, 100 μM GTP, 100 μM UTP, 100 μM CTP, 50 mM Tris-HCl, pH 8.0, 100 mM KCl, 10 mM MgCl2, 1 mM DTT, 10 μg/ml bovine serum albumin, and 5.5% glycerol. Reaction components other than DNA and NTPs were pre-incubated for 10 min at 37° C. Reactions were carried out by addition of DNA and incubation for 5 min at 37° C., followed by addition of NTPs and incubation for 60 min at 37° C. DNA was removed by addition of 1 μl 5 mM CaCl2 and 2 U DNaseI (Ambion, Inc.), followed by incubation for 90 min at 37° C. RNA was quantified by addition of 100 μl RiboGreen RNA Quantitation Reagent (Invitrogen, Inc.; 1:500 dilution in Tris-HCl, pH 8.0, 1 mM EDTA), followed by incubation for 10 min at 25° C., followed by measurement of fluorescence intensity [excitation wavelength=485 nm and emission wavelength=535 nm; QuantaMaster QM1 spectrofluorometer (PTI, Inc.)]. IC50 is defined as the concentration of inhibitor resulting in 50% inhibition of RNA polymerase activity.

Data set [3] can be described thus: Metabolic stability, human liver microsomes. The conditions noted are these: human liver microsomes (male) 1 mg/ml, 1 mM NADPH, pH 7.4, 37° C. In kind it is in vitro ADME. Here is the method: (§1) Test compounds were incubated with mouse liver microsomes (CD-1; male and female pooled; 1 mg/ml) or human liver microsomes (male; 1 mg/ml) in 50 mM potassium phosphate, pH 7.4, and 1 mM NADPH at 37° C. Aliquots were removed at 0, 15, 30, 60, 90 and 120 min, and amounts of test compounds remaining were determined by LC-MS/MS. Half lives (t0.5) were calculated as t0.5=−0.693/k, where k is the slope of the linear regression of the natural logarithms of percentages of test compounds remaining vs. time.

The nature of data set [4]: Metabolic stability, mouse liver microsomes. In kind it is in vitro ADME. The conditions noted are these: CD-1 mouse liver microsomes 1 mg/ml, 1 mM NADPH, pH 7.4, 37° C. Here is the method:
as §1
Background: Liver microsomes are vesicles of endoplasmic reticulum, rich in cytochrome P450 enzymes.

Data set [5] can be described thus: In vivo pharmacokinetics in mice (intravenous administration). To be noted: CD-1 mice, 2.5 mg/kg. Here is the method:
Test compounds (2.5 mg/kg; 0.1 ml of 0.625 mg/ml solution in 5% dimethylacetamide and 4% Cremophor EL in 100 mM sodium phosphate, pH 7.4) were administered to mice (CD-1; […]; n=3) by intravenous injection into a tail vein at t=0 h. Blood samples were collected by tail-vein bleed (CB 300 K2E tubes; Sarstedt) at t=0.02, 0.05, 1, 3, 5, and 8 h, and plasma concentrations of test compounds were determined by LC-MS/MS.

The subject of data set [6] is Mycobacterium tuberculosis H37Rv. As to the kind of experiment: Inhibition of growth of Mycobacterium tuberculosis (microplate Alamar Blue assay). The format is cell-based. To be noted: read-out: in vitro antibacterial activity M. tuberculosis H37Rv MIC. (Resazurin is reduced to fluorescent resorufin, in cell work by metabolically active cells.)
[7] abbreviates: ATCC12600, spiral gradient endpoint assay, 16 h at 37° C.
[8] abbreviates: 75 nM E. coli RNAP holoenzyme, RiboGreen fluorescence, read-out: in vitro RNAP-inhibitory activity E. coli RNAP IC50.

Chain of E. coli RNA polymerase σ70 holoenzyme (P0A8V2 whole entry, the tested form may be a part): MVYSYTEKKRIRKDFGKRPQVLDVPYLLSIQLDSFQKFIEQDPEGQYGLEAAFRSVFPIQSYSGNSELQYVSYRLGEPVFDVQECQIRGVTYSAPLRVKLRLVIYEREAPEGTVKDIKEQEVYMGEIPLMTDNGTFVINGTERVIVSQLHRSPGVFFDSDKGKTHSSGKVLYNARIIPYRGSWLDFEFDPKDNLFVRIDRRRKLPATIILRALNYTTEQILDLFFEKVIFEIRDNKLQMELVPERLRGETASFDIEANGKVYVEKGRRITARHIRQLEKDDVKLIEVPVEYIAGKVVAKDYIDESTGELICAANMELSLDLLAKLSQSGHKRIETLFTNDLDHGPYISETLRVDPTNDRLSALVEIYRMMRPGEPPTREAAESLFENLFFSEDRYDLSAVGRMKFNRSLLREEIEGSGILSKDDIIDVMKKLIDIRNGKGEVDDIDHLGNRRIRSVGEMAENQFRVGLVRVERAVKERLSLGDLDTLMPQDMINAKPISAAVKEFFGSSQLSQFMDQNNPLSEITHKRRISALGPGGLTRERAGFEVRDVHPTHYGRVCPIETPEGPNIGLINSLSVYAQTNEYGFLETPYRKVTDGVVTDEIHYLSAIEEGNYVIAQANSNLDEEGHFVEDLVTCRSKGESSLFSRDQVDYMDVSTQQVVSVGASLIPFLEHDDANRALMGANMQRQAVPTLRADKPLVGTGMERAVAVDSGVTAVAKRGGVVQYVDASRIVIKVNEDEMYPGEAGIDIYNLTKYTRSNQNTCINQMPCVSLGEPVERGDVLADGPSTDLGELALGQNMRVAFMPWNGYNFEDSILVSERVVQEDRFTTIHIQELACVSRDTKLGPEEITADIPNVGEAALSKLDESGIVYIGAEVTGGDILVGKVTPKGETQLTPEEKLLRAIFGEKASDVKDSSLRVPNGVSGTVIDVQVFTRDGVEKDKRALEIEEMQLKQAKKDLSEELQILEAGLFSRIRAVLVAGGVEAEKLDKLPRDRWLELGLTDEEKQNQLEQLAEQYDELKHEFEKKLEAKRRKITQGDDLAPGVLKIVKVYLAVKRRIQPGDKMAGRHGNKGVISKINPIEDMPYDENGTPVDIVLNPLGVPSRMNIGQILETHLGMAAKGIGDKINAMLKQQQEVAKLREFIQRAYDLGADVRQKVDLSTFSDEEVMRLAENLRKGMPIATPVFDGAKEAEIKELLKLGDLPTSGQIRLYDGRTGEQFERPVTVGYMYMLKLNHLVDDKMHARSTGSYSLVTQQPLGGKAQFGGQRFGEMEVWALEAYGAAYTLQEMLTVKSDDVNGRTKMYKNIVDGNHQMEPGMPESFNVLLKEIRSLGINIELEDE
Chain of E. coli RNA polymerase σ70 holoenzyme (P0A8T7 whole entry, the tested form may be a part): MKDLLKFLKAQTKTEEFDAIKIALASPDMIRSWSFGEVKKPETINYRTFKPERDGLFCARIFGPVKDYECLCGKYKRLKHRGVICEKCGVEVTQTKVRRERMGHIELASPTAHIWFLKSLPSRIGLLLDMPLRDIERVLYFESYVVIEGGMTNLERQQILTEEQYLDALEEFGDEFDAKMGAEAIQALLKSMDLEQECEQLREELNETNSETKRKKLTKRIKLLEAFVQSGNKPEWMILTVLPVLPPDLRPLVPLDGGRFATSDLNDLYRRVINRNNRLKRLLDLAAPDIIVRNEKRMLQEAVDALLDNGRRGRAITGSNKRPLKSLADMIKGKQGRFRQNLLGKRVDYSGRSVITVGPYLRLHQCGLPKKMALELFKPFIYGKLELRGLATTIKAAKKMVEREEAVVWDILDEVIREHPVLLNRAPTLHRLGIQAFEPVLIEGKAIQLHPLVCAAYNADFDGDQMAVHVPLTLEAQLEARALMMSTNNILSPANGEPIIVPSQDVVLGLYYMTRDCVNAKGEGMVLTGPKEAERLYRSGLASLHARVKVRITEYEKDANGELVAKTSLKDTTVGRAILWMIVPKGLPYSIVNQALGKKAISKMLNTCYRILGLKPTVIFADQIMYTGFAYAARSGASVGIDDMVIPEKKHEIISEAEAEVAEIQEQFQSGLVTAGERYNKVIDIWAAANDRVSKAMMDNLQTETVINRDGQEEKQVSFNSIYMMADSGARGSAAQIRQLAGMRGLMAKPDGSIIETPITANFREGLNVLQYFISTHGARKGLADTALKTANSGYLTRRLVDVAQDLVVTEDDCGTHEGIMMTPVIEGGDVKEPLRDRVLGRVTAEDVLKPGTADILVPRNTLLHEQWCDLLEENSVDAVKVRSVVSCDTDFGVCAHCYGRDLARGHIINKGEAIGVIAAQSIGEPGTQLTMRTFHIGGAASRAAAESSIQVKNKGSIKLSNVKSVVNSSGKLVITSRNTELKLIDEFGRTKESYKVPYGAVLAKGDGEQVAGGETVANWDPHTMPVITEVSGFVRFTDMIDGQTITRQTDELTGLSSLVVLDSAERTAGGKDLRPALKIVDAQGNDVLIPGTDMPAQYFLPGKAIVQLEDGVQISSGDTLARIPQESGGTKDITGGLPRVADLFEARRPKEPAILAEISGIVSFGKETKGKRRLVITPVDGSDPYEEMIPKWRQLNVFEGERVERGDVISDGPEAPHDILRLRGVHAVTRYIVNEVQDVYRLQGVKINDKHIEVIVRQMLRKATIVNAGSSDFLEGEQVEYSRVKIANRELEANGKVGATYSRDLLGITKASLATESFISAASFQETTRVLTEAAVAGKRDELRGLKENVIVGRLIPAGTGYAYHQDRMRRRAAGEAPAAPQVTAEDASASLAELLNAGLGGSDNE
Chain of E. coli RNA polymerase σ70 holoenzyme (P0A7Z4 whole entry partner, the tested form may be a part): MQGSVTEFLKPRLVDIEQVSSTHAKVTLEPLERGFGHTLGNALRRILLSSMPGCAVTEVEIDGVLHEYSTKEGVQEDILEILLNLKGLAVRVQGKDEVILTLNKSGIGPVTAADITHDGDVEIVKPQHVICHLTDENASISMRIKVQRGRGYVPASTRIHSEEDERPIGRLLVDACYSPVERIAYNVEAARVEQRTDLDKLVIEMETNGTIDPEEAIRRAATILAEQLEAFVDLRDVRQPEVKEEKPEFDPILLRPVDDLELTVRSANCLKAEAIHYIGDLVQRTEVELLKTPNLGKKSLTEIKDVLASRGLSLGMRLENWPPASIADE
Chain of E. coli RNA polymerase σ70 holoenzyme (P0A800 2-91 partner limits assumed): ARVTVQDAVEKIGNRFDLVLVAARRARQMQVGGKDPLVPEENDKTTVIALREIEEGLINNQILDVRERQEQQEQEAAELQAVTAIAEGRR
Chain of E. coli RNA polymerase σ70 holoenzyme (P00579 whole entry partner, the tested form may be a part): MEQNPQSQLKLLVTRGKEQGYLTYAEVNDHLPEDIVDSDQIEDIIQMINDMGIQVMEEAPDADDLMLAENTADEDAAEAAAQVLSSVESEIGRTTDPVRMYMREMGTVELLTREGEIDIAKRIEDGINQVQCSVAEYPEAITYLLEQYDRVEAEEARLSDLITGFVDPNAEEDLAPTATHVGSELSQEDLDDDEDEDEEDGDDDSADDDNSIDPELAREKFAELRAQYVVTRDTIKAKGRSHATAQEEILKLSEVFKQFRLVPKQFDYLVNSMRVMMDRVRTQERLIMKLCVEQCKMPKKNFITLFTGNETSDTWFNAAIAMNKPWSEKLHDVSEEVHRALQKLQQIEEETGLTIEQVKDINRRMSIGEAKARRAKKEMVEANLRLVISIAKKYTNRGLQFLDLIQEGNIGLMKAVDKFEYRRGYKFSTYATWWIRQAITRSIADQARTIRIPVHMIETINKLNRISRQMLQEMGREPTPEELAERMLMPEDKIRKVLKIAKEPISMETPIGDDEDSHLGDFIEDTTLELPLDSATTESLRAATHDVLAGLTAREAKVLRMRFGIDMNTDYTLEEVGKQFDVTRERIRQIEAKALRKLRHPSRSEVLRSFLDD

As a reminder, the MIC is the smallest concentration in the dilution series that meets the test's criterion for growth inhibition. Broadly, the IC50 is the concentration at which inhibition is half-maximal. On to `[2H]C([2H])([2H])OC(=O)N/C=C/CCC(C)c1cc(O)c(C(=O)/C(C)=C/c2sc(Oc3ccc(F)cc3)nc2C)c(=O)o1` (centres unmarked) [Example 4], for which the MIC in data set [1] (setting [7]) is 0.24 µg/mL (≈ 0.44 µM). In addition, the 50% inhibitory concentration (IC50) in data set [2] (setting [8]) was determined as 6.8 nM. Further, the “human liver microsome t0.5” value in data set [3] was found to be 16 min. In addition, the “mouse liver microsome t0.5” value in data set [4] worked out at 59 min. In data set [5], the “plasma t0.5” value is 2.7 h.
Turning to `[2H]C([2H])([2H])OC(=O)N/C=C/CCC(C)c1cc(O)c(C(=O)/C(C)=C/C=C(\C)CCCC)c(=O)o1` (centres unmarked) [Example 12], the “human liver microsome t0.5” value in data set [3] is 4.2 min. Moreover, in data set [4], the “mouse liver microsome t0.5” value is reported as 66 min.
`COC(=O)N/C=C/CCC(C)c1cc(O)c(C(=O)/C(C)=C/C=C(\C)CCC(F)(F)F)c(=O)o1` (centres unmarked) [Example 11, reference compound]: in data set [2] (setting [8]), the 50% inhibitory concentration (IC50) turned out to be 12 nM. The “human liver microsome t0.5” value in data set [3] worked out at 25 min. Moreover, the “mouse liver microsome t0.5” value in data set [4] was determined as 100 min.
The like results for `CCCC/C(C)=C/C=C(\C)C(=O)c1c(O)cc(C(C)CC/C=C/NC(=O)OC)oc1=O` (racemic) [Example 10, (±)Myxopyronin B, reference compound] were, in that order, 13 nM, 1.7 min and 21 min.
Consider `COC(=O)N/C=C/CCCc1cc(O)c(C(=O)/C(C)=C/c2sc(Oc3ccc(F)cc3)nc2C)c(=O)o1` [Example 3], for which the minimal inhibitory concentration (MIC) in data set [1] (setting [7]) amounted to 0.17 µg/mL (≈ 0.322 µM); in data set [6] it was 1.56 µg/mL (≈ 2.95 µM). Moreover, the IC50 in data set [2] (setting [8]) stood at 4.5 nM. Besides, the “human liver microsome t0.5” value in data set [3] is on record as 5.6 min. The “mouse liver microsome t0.5” value in data set [4] was 110 min. The “plasma t0.5” value in data set [5] is given as 2.5 h.
As to `[2H]C([2H])([2H])OC(=O)N/C=C/CCCc1cc(O)c(C(=O)/C(C)=C/c2cnc(Oc3ccc(F)cc3)s2)c(=O)o1` [Example 8], the figures for the MIC in data set [1] (setting [7]) and in data set [6] were 0.25 µg/mL (≈ 0.483 µM) and 0.78 µg/mL (≈ 1.51 µM), respectively. Moreover, in data set [2] (setting [8]), the IC50 came out at 3 nM. Also, the “human liver microsome t0.5” value in data set [3] is on record as 21 min. The “mouse liver microsome t0.5” value in data set [4] is listed as above 120 min. For the same compound, in data set [5], the “plasma t0.5” value was found to be 2.7 h.
With `[2H]C([2H])([2H])OC(=O)N/C=C/CCCc1cc(O)c(C(=O)/C(C)=C/c2cnc(Oc3ccc(F)c(Br)c3)s2)c(=O)o1` [Example 18], the values for the MIC in data set [1] (setting [7]) and in data set [6] were 0.35 µg/mL (≈ 0.587 µM) and 0.78 µg/mL (≈ 1.31 µM), respectively. The IC50 in data set [2] (setting [8]) worked out at 1.6 nM.
Turning to `[2H]C([2H])([2H])OC(=O)N/C=C/CCCc1cc([O-])c(C(=O)/C(C)=C/c2cnc(Oc3ccc(F)c(Cl)c3)s2)c(=O)o1.[Na+]` [Example 15], the MIC in data set [1] (ATCC12600, 16 h) turned out to be 0.17 µg/mL; in data set [6] it was 0.78 µg/mL. In data set [2], this compound returned an IC50 of 2.9 nM.
In data set [2], `[2H]C([2H])([2H])OC(=O)N/C=C/CCCc1cc([O-])c(C(=O)/C(C)=C/c2cnc(Oc3ccc(-c4ccccc4)cc3)s2)c(=O)o1.[Na+]` [Example 17] had an IC50 of 49 nM. Moreover, the minimum inhibitory concentration (MIC) in data set [6] was above 50 µg/mL.
Consider `[2H]C([2H])([2H])OC(=O)N/C=C/CCCc1cc(O)c(C(=O)/C(C)=C/c2cnc(Oc3ccc(F)c(F)c3)s2)c(=O)o1` [Example 20], for which the results for the MIC in data set [1] (setting [7]) and in data set [6] were 0.26 µg/mL (≈ 0.485 µM) and 0.78 µg/mL (≈ 1.46 µM), respectively. In data set [2] (setting [8]), the half-inhibitory concentration (IC50) turned out to be 3 nM.
Regarding `[2H]C([2H])([2H])OC(=O)N/C=C/CCC(C)c1cc(O)c(C(=O)/C(C)=C/C=C(\C)CCC(F)(F)F)c(=O)o1` (centres unmarked) [Example 13], the 50% inhibitory concentration (IC50) in data set [2] (setting [8]) is 23 nM. Also, the “human liver microsome t0.5” value in data set [3] was found to be 33 min. Moreover, the “mouse liver microsome t0.5” value in data set [4] is given as above 120 min.
`[2H]C([2H])([2H])OC(=O)N/C=C/CCCc1cc(O)c(C(=O)/C(C)=C/c2cnc(Oc3ccc(F)c(-c4ccccc4)c3)s2)c(=O)o1` [Example 19]: the MIC in data set [1] (setting [7]) turned out to be 0.93 µg/mL (≈ 1.57 µM); in data set [6], 25 µg/mL (≈ 42.1 µM). In addition, the concentration for half-maximal inhibition (IC50) in data set [2] (setting [8]) was determined as 1.2 nM.
With `[2H]C([2H])([2H])OC(=O)N/C=C/CCCc1cc(O)c(C(=O)/C(C)=C/c2cnc(Oc3ccc(-c4ccccc4)cc3)s2)c(=O)o1` [Example 16], the values for the MIC in data set [1] (setting [7]) and in data set [6] were above 8 µg/mL and above 50 µg/mL, respectively. The IC50 in data set [2] (setting [8]) was found to be 18 nM. Besides, the “human liver microsome t0.5” value in data set [3] amounted to 44 min. In addition, the “mouse liver microsome t0.5” value in data set [4] is 46 min.

Values taken from patent US11685723B2, “Antibacterial agents: O-alkyl-deuterated pyronins” (Rutgers, the State University of New Jersey, priority 2018, dated 2023).
